Assay results reported in patent US12122774B2, “Compounds as MYT1 inhibitors” (WIGEN BIOMEDICINE TECHNOLOGY (SHANGHAI) CO., LTD., priority 2022, dated 2024).
In brackets after ≈: the same amount, converted by molar mass.

How the values were obtained:
MIA PaCa-2 cells [1] = assay: In vitro anti-proliferative activity against MIA PaCa-2 cells (compound alone); type: cell-based; settings: Homo sapiens, MIA PaCa-2, 72 h, intracellular ATP content
Method: MIA PaCa-2 cells were seeded on a 384-well plate at 3000 cells/well. After overnight adherence culture, DMSO or the compounds serially diluted 1:5 from 10 µM were added. The viability was assessed 72 h after dosing by measuring the intracellular ATP content. The inhibition percentage of viable cells by the compounds was calculated by comparing with the DMSO group, and the IC50 value was calculated.

MIA PaCa-2 cells [2] = assay: In vitro anti-proliferative activity in combination with gemcitabine against MIA PaCa-2 cells; type: cell-based
Method: MIA PaCa-2 cells were seeded on a 384-well plate at 3000 cells/well, and 20 nM gemcitabine was added. After overnight adherence culture, DMSO or the compounds serially diluted 1:5 from 1000 nM were added. The viability was assessed 72 h after dosing by measuring the intracellular ATP content. The inhibition percentage of viable cells by the compounds was calculated by comparing with the DMSO group, and the IC50 value was calculated.

[3] = In vivo pharmacokinetic experiment; set-up: species or system CD-1 female mice; settings: mice
Method: CD-1 female mice aged 7 to 10 weeks were intravenously administered and orally administered at a dose of 2 mg/kg and 10 mg/kg, respectively. The mice were fasted for at least 12 h before the administration and given food 4 h after the administration, and they were given ad libitum access to water during the experiment. On the day of the experiment, animals in the intravenous group were administered the corresponding compound by single injection via the tail vein at an administration volume of 10 mL/kg. Animals in the oral group were administered the corresponding compound by single intragastric injection at an administration volume of 10 mL/kg. The animals were weighed before administration, and the administration volume was calculated according to the body weight. The sample collection time was 0.083 h (injection group), 0.167 h, 0.5 h, 1 h, 2 h, 4 h, 8 h, and 24 h. About 200 μL of whole blood was collected through the submaxillary venous plexus at each time point and used to prepare plasma for concentration determination by high-performance liquid chromatography-tandem mass spectrometry (LC-MS/MS). All animals were euthanized with CO2 anesthesia after the PK samples were collected at the last time point. The plasma concentrations were processed using a non-compartmental model of Phoenix WinNonlin™ version 8.3 (Certara) pharmacokinetic software, and the pharmacokinetic parameters were calculated using a linear-log trapezoidal method.

[4] = tested on: MDCK cells stably transduced with MDR1 (MDCK-MDR1); assay: in vitro; settings: MDCK-MDR1
Method: (§1) In vitro passive permeability or the ability to serve as a P-glycoprotein (P-gp) transport substrate was tested using MDCK cells (MDCK wild type) or MDCK cells stably transduced with MDR1 (MDCK-MDR1), respectively. The permeability experiment was performed in duplicate in a transwell system at a single concentration (5 μM). The cells were incubated for 90 min. Apical-to-basolateral (A to B, A-B) transport and basolateral-to-apical (B to A, B-A) transport of the corresponding compound were determined, and the permeation rate (apparent permeability) (Papp×10^−6 cm/sec) and efflux ratio (Papp (B-A)/Papp (A-B)) of the test compound were calculated.

[5] = tested on: P-glycoprotein (P-gp, MDR1); assay: in vitro; settings: dog
Method: as §1

in vitro = settings: dog, MDCK
Method: as §1

[6] = In vitro solubility experiment; type: physicochemical; settings: for solubility at 0.5 h: thermodynamic from solid
Method: (§2) Preparation of a standard curve: 10.01 mg of sample was weighed out and placed in a volumetric flask, and the volume was brought to 10 mL with acetonitrile/water (v/v, 9/1) to prepare 1.001 mg/mL of standard solution; the standard solution was then serially diluted to 0.5005 mg/mL, 0.1001 mg/mL, 0.05005 mg/mL, 0.01001 mg/mL, and 0.001001 mg/mL to generate the standard curve, and a linear equation was fitted by taking the peak area of the sample as a vertical axis and the concentration as a horizontal axis. Solubility and stability test: 15 mg of sample was added to 3 mL of vehicle (FaSSIF, FeSSIF, SGF, or water) to prepare a corresponding suspension at a target concentration of 5 mg/mL. The prepared suspension was stirred on a shaker (800 rpm) at 37° C. for 0.5 h, and the suspension was then filtered. The filtrate was diluted with a diluent to a corresponding multiple so that the peak height could not exceed the standard curve, and the solubility and purity were detected using HPLC.

[7] = In vitro stability experiment (HPLC purity of filtrate); type: physicochemical
Method: as §2

[8] = In vitro solubility experiment; type: physicochemical; settings: organic solvent or mixture, thermodynamic from solid
[9] = female, CD-1, mouse, plasma, iv, injection 2 mg/kg
[10] = female, CD-1, mouse, plasma, oral administration 10 mg/kg
[11] = FaSSIF, initial pH 6.52, 37° C.
[12] = FeSSIF, initial pH 4.98, 37° C.

With `Cc1cc2c(C(N)=O)c(N)n(-c3c(C)c(O)cc(F)c3C)c2nc1C` (single isomer, unassigned) [Compound 2] the IC50 (MIA PaCa-2 cells [1]) was 4.32 µM, the “Anti-proliferative activity against MIA PaCa-2 cells in combination with gemcitabine” value (MIA PaCa-2 cells [2]; in words) was “stronger anti-proliferative activity than that of RP-6306” and the IC50 (MIA PaCa-2 cells [2]; read-out: Anti-proliferative activity against MIA PaCa-2 cells (20 nM gemcitabine) IC50, with 20 nM gemcitabine, 72 h, intracellular ATP content) was 0.018 µM. It also gave an AUC(0-t) [3, 9] of 338 ng·h/mL, a half-life [3, 9] of 3.32 h and a Vd ([3]; female, CD-1, mouse, plasma, iv, injection 2 mg/kg, read-out: Vdss) of 6.76 L/kg. It also gave an AUC(0-t) [3, 10] of 638 ng·h/mL, a Cmax [3, 10] of 603 ng/mL and a half-life [3, 10] of 3.84 h. For the same compound, the Cl ([3]; injection 2 mg/kg) was 94.4 mL/min/kg, the F % ([3]; oral administration 10 mg/kg) was 44.5% and the “Half-life T1/2 compared to RP-6306” value ([3]; in words) was “longer half-life T1/2 compared to RP-6306”. The “Vdss compared to RP-6306” value ([3]; in words) was “greater increase in Vdss compared to RP-6306”, the “Permeability compared to RP-6306” value [4] was “superior permeability to that of RP-6306” and the efflux ratio at 90 min, 5 μM ([5]; MDCK-MDR1) was 1.71. The Papp A→B at 90 min, 5 µM ([5]; MDCK-MDR1, Papp Mean) was 20.5 ×10⁻⁶ cm/s, the Papp B→A at 90 min, 5 µM ([5]; MDCK-MDR1, Papp Mean) was 35 ×10⁻⁶ cm/s and the Papp A→B at 90 min, 5 µM ([5]; MDCK-MDR1, Papp Sample - 01) was 21.1 ×10⁻⁶ cm/s. It also gave a Papp B→A at 90 min, 5 µM ([5]; MDCK-MDR1, Papp Sample - 01) of 35.3 ×10⁻⁶ cm/s, a Papp A→B at 90 min, 5 µM ([5]; MDCK-MDR1, Papp Sample - 02) of 19.9 ×10⁻⁶ cm/s and a Papp B→A at 90 min, 5 µM ([5]; MDCK-MDR1, Papp Sample - 02) of 34.8 ×10⁻⁶ cm/s. The efflux ratio at 90 min, 5 μM (in vitro) was 1.56, the Papp A→B at 90 min, 5 µM (in vitro; Papp Mean) was 27.1 ×10⁻⁶ cm/s and the Papp B→A at 90 min, 5 µM (in vitro; Papp Mean) was 42.2 ×10⁻⁶ cm/s. The Papp A→B at 90 min, 5 µM (in vitro; Papp Sample - 01) was 27.9 ×10⁻⁶ cm/s, the Papp B→A at 90 min, 5 µM (in vitro; Papp Sample - 01) was 40 ×10⁻⁶ cm/s and the Papp A→B at 90 min, 5 µM (in vitro; Papp Sample - 02) was 26.3 ×10⁻⁶ cm/s. For the same compound, the Papp B→A at 90 min, 5 µM (in vitro; Papp Sample - 02) was 44.5 ×10⁻⁶ cm/s, the “Solubility compared to RP-6306” value ([6]; FaSSIF, FeSSIF, SGF, water, methanol, and tetrahydrofuran, in words) was “higher solubility in various vehicles” and the solubility at 0.5 h ([6]; simulated gastric fluid, SGF, initial pH 1.2, 37° C.) was 4860 µg/mL (≈ 14.2 mM). For the same compound, the solubility at 0.5 h [6, 11] was 61 µg/mL (≈ 0.178 mM), the solubility at 0.5 h [6, 12] was 327 µg/mL (≈ 0.955 mM) and the solubility at 0.5 h ([6]; Water, initial pH 7.7, 37° C.) was 270 µg/mL (≈ 0.789 mM). For the same compound, the “Stability compared to RP-6306” value ([7]; FaSSIF, FeSSIF, and water, in words) was “more stable than RP-6306”, the “HPLC purity 0.5 h” value [7, 11] was 88.76 %, 220 nm and the “HPLC purity 0.5 h” value [7, 12] was 95.98 %, 220 nm. For the same compound, the “HPLC purity 0.5 h” value ([7]; SGF, initial pH 1.2, 37° C.) was 98.69 %, 220 nm, the “HPLC purity 0.5 h” value ([7]; Water, initial pH 7.7, 37° C.) was 96.4 %, 220 nm and the solubility at 0.5 h ([8]; methanol) was 40600 µg/mL (≈ 118 mM). It also gave a solubility at 0.5 h ([8]; tetrahydrofuran) of 6110 µg/mL (≈ 17.9 mM).
